Measured values as given in ChEMBL document CHEMBL1201862, “PubChem BioAssay data set” (2004).
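Compound exposure: 48 hours, 5 concentrations, 96-well plates. Here, GI50 denotes the concentration required for 50% inhibition of growth.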 Active and inactive are the calls of the source. Cut-off read from the data, not from the text of the source: active = GI50 up to about 1.1 µM and inactive = higher.

Key:
Experiment in all cases: DTP human tumour cell line panel, 48 h
SN12C = test system: SN12C
SK-MEL-5 = test system: SK-MEL-5
EKVX = test system: EKVX
MDA-MB-435 = test system: MDA-MB-435
MDA-N = test system: MDA-N
SNB-75 = test system: SNB-75
CAKI-1 = test system: CAKI-1
HCT-116 = test system: HCT-116
NCI-H23 = test system: NCI-H23
UACC-62 = test system: UACC-62
HCT-15 = test system: HCT-15
TK-10 = test system: TK-10
MDA-MB-231 = test system: MDA-MB-231
IGROV-1 = test system: IGROV-1
SNB-19 = test system: SNB-19
Malme-3M = test system: Malme-3M
ACHN = test system: ACHN
A498 = test system: A498
NCI/ADR-RES = test system: NCI/ADR-RES
T47D = test system: T47D

| Compound | GI50 (SN12C) | GI50 (SK-MEL-5) | GI50 (EKVX) | GI50 (MDA-MB-435) | GI50 (MDA-N) | GI50 (SNB-75) | GI50 (CAKI-1) | GI50 (HCT-116) | GI50 (NCI-H23) | GI50 (UACC-62) | GI50 (HCT-15) [µM] | GI50 (TK-10) | GI50 (MDA-MB-231) | GI50 (IGROV-1) | GI50 (SNB-19) | GI50 (Malme-3M) | GI50 (ACHN) | GI50 (A498) | GI50 (NCI/ADR-RES) | GI50 (T47D) |
| --- | --- | --- | --- | --- | --- | --- | --- | --- | --- | --- | --- | --- | --- | --- | --- | --- | --- | --- | --- | --- |
| O=P1(c2ccccc2)C(c2ccccc2)CCC1c1ccccc1 (configuration not stated) | 34.9 µM (inactive) | 37.2 µM (inactive) | 29.5 µM (inactive) | 34.9 µM (inactive) | 15.1 µM (inactive) | 57.3 µM (inactive) | 16.4 µM (inactive) | 35.6 µM (inactive) | 48.4 µM (inactive) | 50.7 µM (inactive) | 28.8 | 71 µM (inactive) | 42.9 µM (inactive) | 82.6 µM (inactive) | > 100 µM (inactive) |  |  |  |  |  |
| CC(C)(C)OC(=O)[C@@H]1CCC(=S)N1Cc1ccccc1 | > 100 µM (inactive) | 47.4 µM (inactive) | 92 µM (inactive) | > 100 µM (inactive) | > 100 µM (inactive) | 37.8 µM (inactive) | > 100 µM (inactive) | > 100 µM (inactive) | 70.1 µM (inactive) | > 100 µM (inactive) | > 100 | > 100 µM (inactive) | > 100 µM (inactive) | > 100 µM (inactive) | > 100 µM (inactive) | > 100 µM (inactive) | > 100 µM (inactive) | > 100 µM (inactive) | > 100 µM (inactive) |  |
| COc1cccc(/N=C/c2cc3cc(Br)ccc3nc2Cl)c1 | 15.5 µM (inactive) | 36.1 µM (inactive) | > 50 µM (inactive) | 11.1 µM (inactive) | 13.6 µM (inactive) | 17.1 µM (inactive) | 7.06 µM (inactive) | 11.2 µM (inactive) | 22.1 µM (inactive) |  | 35.3 |  |  | 12.6 µM (inactive) | > 50 µM (inactive) | > 50 µM (inactive) |  |  | 17.2 µM (inactive) | 10.5 µM (inactive) |
| O=C(N/N=C1\C(=O)Nc2c(Cl)cc(Cl)cc21)C(=O)Nc1cccc(C(F)(F)F)c1 | > 100 µM (inactive) | > 100 µM (inactive) | > 100 µM (inactive) | 45.5 µM (inactive) | 54 µM (inactive) | > 100 µM (inactive) | > 100 µM (inactive) | > 100 µM (inactive) | > 100 µM (inactive) | > 100 µM (inactive) | > 100 | > 100 µM (inactive) | 94.4 µM (inactive) | > 100 µM (inactive) | > 100 µM (inactive) | > 100 µM (inactive) | > 100 µM (inactive) | > 100 µM (inactive) | > 100 µM (inactive) |  |
| CC#C[C@]1(O)CCC2[C@@H]3CCC4=CC(=O)CCC4=C3[C@@H](c3ccc(N(C)C)cc3)C[C@@]21C (some centres not stated) | 21.8 µM (inactive) | 10.9 µM (inactive) | 13.2 µM (inactive) | 12.2 µM (inactive) | 11.8 µM (inactive) |  | 5.73 µM (inactive) | 15 µM (inactive) | 21.4 µM (inactive) | 3.36 µM (inactive) | 12.3 | 11.9 µM (inactive) | 8.79 µM (inactive) |  | 35 µM (inactive) | 14.6 µM (inactive) | 18.7 µM (inactive) |  | 11.5 µM (inactive) | 6.84 µM (inactive) |
| Cc1ccc(O)c(C2=NNC(c3cccc(Br)c3)C2)c1 (configuration not stated) | 52.6 µM (inactive) | 71.3 µM (inactive) | 35.9 µM (inactive) | 19.8 µM (inactive) | 28.8 µM (inactive) |  | 27.9 µM (inactive) | 40.4 µM (inactive) | 76.6 µM (inactive) | 35.7 µM (inactive) | 11.5 | > 100 µM (inactive) |  | 13 µM (inactive) | 23 µM (inactive) | > 100 µM (inactive) | 34.3 µM (inactive) |  | 48.1 µM (inactive) | 35.6 µM (inactive) |
| Cc1ccc(N(C)S(=O)(=O)c2ccc([N+](=O)[O-])cc2)cc1 | > 100 µM (inactive) | > 10 µM (inactive) | > 100 µM (inactive) | 81.8 µM (inactive) | > 100 µM (inactive) | > 100 µM (inactive) | > 100 µM (inactive) | > 100 µM (inactive) |  | 52.5 µM (inactive) | 91.4 | > 100 µM (inactive) | 85.3 µM (inactive) | > 100 µM (inactive) | > 100 µM (inactive) | 38.2 µM (inactive) | > 100 µM (inactive) |  | 97.9 µM (inactive) |  |
| CN(C)CCCNC(=O)CCNC(=O)c1cc(NC(=O)c2cc(NC(=O)c3cc(NC(=O)CCCNC(=O)c4cc(NC(=O)c5cc(NC(=O)c6nccn6C)cn5C)cn4C)cn3C)cn2C)cn1C | > 100 µM (inactive) | > 100 µM (inactive) | > 100 µM (inactive) | > 100 µM (inactive) | > 100 µM (inactive) | > 100 µM (inactive) | > 100 µM (inactive) | > 100 µM (inactive) | > 100 µM (inactive) |  | > 100 | > 100 µM (inactive) | > 100 µM (inactive) | > 100 µM (inactive) | > 100 µM (inactive) | > 100 µM (inactive) | > 100 µM (inactive) | > 100 µM (inactive) | > 100 µM (inactive) |  |
| CCN(CC)CCC1(C(=O)OC)SCCc2ccc(C)cc21 (configuration not stated) | > 100 µM (inactive) | > 100 µM (inactive) | > 100 µM (inactive) | > 100 µM (inactive) | > 100 µM (inactive) | 63.2 µM (inactive) | > 100 µM (inactive) | > 100 µM (inactive) | > 100 µM (inactive) | > 100 µM (inactive) | > 100 | > 100 µM (inactive) |  | > 100 µM (inactive) | > 100 µM (inactive) | > 100 µM (inactive) | > 100 µM (inactive) | > 100 µM (inactive) | > 100 µM (inactive) | > 100 µM (inactive) |
| O=C(c1ccc(Br)cc1)n1c2ccc(Br)cc2c2nc3ccccc3nc21 | > 100 µM (inactive) | > 100 µM (inactive) | > 100 µM (inactive) | > 100 µM (inactive) | > 100 µM (inactive) | 76.7 µM (inactive) | > 100 µM (inactive) | > 100 µM (inactive) | > 100 µM (inactive) | > 100 µM (inactive) | > 100 | > 100 µM (inactive) |  | > 100 µM (inactive) | > 100 µM (inactive) | > 100 µM (inactive) | > 100 µM (inactive) |  | > 100 µM (inactive) | > 100 µM (inactive) |
| [N-]=[N+]=NC1=NNC2(C(=O)N1)c1ccccc1-c1ccccc12 | > 100 µM (inactive) | > 100 µM (inactive) | > 100 µM (inactive) | 17.4 µM (inactive) | > 100 µM (inactive) | > 100 µM (inactive) | > 100 µM (inactive) | 14.2 µM (inactive) | > 100 µM (inactive) | > 100 µM (inactive) | > 100 | > 100 µM (inactive) | > 100 µM (inactive) | > 100 µM (inactive) | > 100 µM (inactive) | 18.1 µM (inactive) | > 100 µM (inactive) | > 100 µM (inactive) | > 100 µM (inactive) |  |
| c1ccc2nc3c(nc2c1)sc1ccccc13 | 34 µM (inactive) | 30.9 µM (inactive) | 16.1 µM (inactive) | 94.4 µM (inactive) |  | 22.2 µM (inactive) | 9.25 µM (inactive) | 26.7 µM (inactive) | 23.2 µM (inactive) | 14.9 µM (inactive) | 58.9 | 19.3 µM (inactive) | 30.5 µM (inactive) | 15.6 µM (inactive) | 14.5 µM (inactive) | 46.9 µM (inactive) | 14.3 µM (inactive) | 27.4 µM (inactive) | 39.7 µM (inactive) | > 100 µM (inactive) |
| S=C1N(/N=C/c2c3ccccc3cc3ccccc23)C(=N\c2ccccc2)/C(=N/c2ccccc2)N1c1ccccc1 | > 100 µM (inactive) | > 100 µM (inactive) | > 100 µM (inactive) | > 100 µM (inactive) | > 100 µM (inactive) |  | > 100 µM (inactive) | > 100 µM (inactive) | > 100 µM (inactive) | > 100 µM (inactive) | > 100 | > 100 µM (inactive) | > 100 µM (inactive) | > 100 µM (inactive) | > 100 µM (inactive) | > 100 µM (inactive) |  |  | > 100 µM (inactive) | > 100 µM (inactive) |
| CCCCCCCCCCCCCCCCOCC(CC(F)(F)P(=O)(O)O)OC(C)=O (configuration not stated) | > 50 µM (inactive) | > 50 µM (inactive) | > 50 µM (inactive) | > 50 µM (inactive) | > 50 µM (inactive) | > 50 µM (inactive) | > 50 µM (inactive) | > 50 µM (inactive) | > 50 µM (inactive) | > 50 µM (inactive) | > 50 | > 50 µM (inactive) | > 50 µM (inactive) | > 50 µM (inactive) | > 50 µM (inactive) | > 50 µM (inactive) | > 50 µM (inactive) | > 50 µM (inactive) | > 50 µM (inactive) |  |
| NC(=O)c1nnn(-c2ccccc2)c1O | > 100 µM (inactive) | > 100 µM (inactive) | > 100 µM (inactive) | > 100 µM (inactive) |  | > 100 µM (inactive) | > 100 µM (inactive) | > 100 µM (inactive) | > 100 µM (inactive) | > 100 µM (inactive) | > 100 | > 100 µM (inactive) | > 100 µM (inactive) | > 100 µM (inactive) | > 100 µM (inactive) | > 100 µM (inactive) | > 100 µM (inactive) | > 100 µM (inactive) | > 100 µM (inactive) | > 100 µM (inactive) |
